A short description of data set [1]: Tissue distribution of copper in LLC-bearing mice (GF-AAS). The following applies: single i.p. 50 mg/kg on day 10, 24 h. It is filed as in vivo, mouse. On the procedure:
To better understand the pharmacology and toxicology of the novel copper(I) complex, tissue samples, collected from LCC-bearing C57BL mice were analysed. […] On day 10 after tumor implantation, mice were treated with a single i.p. injection of 50 mg/kg of HydroCuP. After 24 hours, animals were sacrificed and copper content was quantified by graphite furnace atomic absorption spectroscopy (GF-AAS) analysis in several organs and normalized to control mice tissues. The solid tumor mass presented the highest copper concentration (at least 1.4 times higher than that detected in spleen), followed by spleen, kidney, liver and stomach.
Figure 3 Tissue distribution in LLC bearing C57BL mice. C57BL mice were inoculated i.m. on the right flank with LLC cells (2 × 10^6). After 10 days, HydroCuP was administered i.p. at a dose of 50 mg/kg. The mice were sacrificed after 24 hours and tumor, brain, spleen, kidney, intestine, liver and stomach were excised. Tissues were washed in ice-cold saline and weighed after removing excess fluid. All samples were mineralized in HNO3 and Cu content in each sample was measured by GF-AAS.
C57BL mice were inoculated […]. on the right flank with LLC cells (2 × 10^6). […] All samples were mineralized in HNO3 and Cu content in each sample was measured by GF-AAS (Graphite Furnace Atomic Absorption Spectroscopy).

The subject of data set [2] is LoVo colorectal oxaliplatin-sensitive xenograft. The experiment in a line: In vivo activity toward LoVo (OXP-sensitive) tumor xenograft in BALB/c nu/nu mice. The conditions noted are these: 30 mg/kg daily i.p. from day 14, day 30.
Procedure: To this aim, we developed the OXP-sensitive and OXP-resistant LoVo xenografts in BALB/c nu/nu mice. […] OXP-sensitive or OXP-resistant LoVo cells (1 × 10^7) were injected in the flank of mice. Once tumor was established (tumor volumes of about 0.4 cm^3, around 14 days after tumor inoculation), mice were randomly divided into six groups (6 animals per group, 8 controls). The HydroCuP-treated groups (6 mice each group) received daily 30 mg/kg by i.p. injection and the OXP-treated group was given 2 mg/kg by i.p. injection. At day 30, animals were sacrificed, and the inhibition of tumor growth was determined (Fig. 4, panel A). Measurements of body weights were recorded from day 14 every 2 days until the experimental endpoint (Fig. 4, panel B).
(A) LoVo and LoVo-OXP tumor xenografts in 6-week-old BALB/c nu/nu mice by injecting 1 × 10^7 tumor cells subcutaneously on the left dorsal flank. After 24 h from tumor implantation, mice randomly divided into six groups (6 animals per group). Chemotherapy delayed until day 14 (tumor volumes of about 0.4 cm^3). From day 14, HydroCuP dosed daily at 30 mg/kg i.p., OXP dosed daily at 2 mg/kg i.p. At day 30, animals sacrificed, and the inhibition of tumor growth determined by comparing the volume of the control group and the treatment group expressed as percentage referred to the control animals. Error bars indicate the S.D. *p < 0.05, **p < 0.01, with respect to control. […] Body weight was measured every two days and was taken as a parameter of systemic toxicity. The error bars indicate the S.D. **P < 0.01; *P < 0.05.
LoVo and LoVo-OXP tumor xenografts were established in 6-week-old BALB/c nu/nu mice by injecting 1 × 10^7 tumor cells subcutaneously (100 μL in serum free medium) on the left dorsal flank. After 24 h from tumor implantation, mice were randomly divided into six groups (6 animals per group, 8 controls). Chemotherapy was delayed until the tumor was about 0.4 cm^3 (day 14). From day 14, HydroCuP was dosed daily at 30 mg/kg i.p. whereas OXP was dosed daily at 2 mg/kg i.p. Measurements of body weights and tumor volumes were recorded from day 14 every 2 days until the experimental endpoint. The long axis (L) and the short axis (S) were measured with callipers, and the tumor volume (V) was calculated using the following equation: V = SxSxL/2. At day 30, animals were sacrificed, and the inhibition of tumor growth was determined by comparing the volume of the control group and the treatment group expressed as percentage referred to the control animals.
Data set [3] is described as follows: Nephrotoxicity: urinary biomarkers (uTP, NAG) in Sprague Dawley rats. It counts as in vivo, rat. The following applies: single i.p. HydroCuP 50 mg/kg vs CDDP 1.5 mg/kg. On the procedure: Figure 5 Neurotoxicity studies. […] Bar: 500 µm. […] Nephrotoxicity studies. […] Error bars indicate the S.D. The potential nephrotoxic effect of HydroCuP was evaluated by measuring some specific biomarkers in urines obtained from 8-week-old male Sprague Dawley rats treated with a single i.p. injection of HydroCuP and CDDP. Urines of the treated animals were collected after 24, 72 and 120 h, and urinary total protein (uTP) and N-acetyl-β-D-glucosaminidase (NAG) were evaluated as signs of nephrotoxicity. […] On the contrary, treatment with HydroCuP determined a 24 h excretion of uTP roughly 12 times lower than that recorded with CDDP (Fig. 5, panel D). Following 120 h, the levels of uTP excreted by HydroCuP were 11 times lower compared with the reference metallodrug. Eight-week-old male Sprague Dawley rats were randomly allocated to five groups (five animals per group) and treated with a single i.p. injection of HydroCuP (50 mg/kg) or the vehicle solution (0.2 mL saline solution, control). Cisplatin (1.5 mg/kg,) was also used under the same experimental conditions for comparison purposes. […] Later, urines were centrifuged (150 g for 10 minutes at room temperature) to discard debris and aliquoted to measure creatinine, uTP and NAG. Urine creatinine assays were performed using creatinine assay kit from Sigma Chemical Co. (St. Louis, MO). uTPs were measured by means of BioRad Total Protein Test (Hercules, CA). Urinary NAG was measured spectrophotometrically with the NAG kit (Roche diagnostics, Basel, Switzerland) according to the manufacturer’s protocols. uTP and NAG are expressed as grams per millimoles of creatinine (g mmol^−1 creatinine).

Data set [4] deals with HCT-15 human colon cancer spheroids. Put plainly: 3D spheroid cell viability, acid phosphatase (APH) assay, HCT-15. It counts as cell-based. The following applies: HCT-15 spheroids, 72 h. On the procedure: In order to improve the predictive capacity of the in vitro assays, we tested HydroCuP activity in two 3D cell cultures of human colon cancer cells, HCT-15 and LoVo. The colon cancer spheroids were treated with HydroCuP for 72 h and the cell viability was assessed by means of the acid phosphatase (APH) assay (Fig. 1, panel A).
Figure 1 Activity in 3D cell cultures. (A) Spheroids (2.5 × 10^3 cells/well) were treated for 72 h with increasing concentrations of tested compounds. The growth inhibitory effect was evaluated by means of APH test. IC50 values were calculated from the dose-survival curves by four parameter logistic model (P < 0.05). SD = standard deviation.
Spheroids were initiated in liquid overlay by seeding 2.5 × 10^3 HCT-15 and LoVo cells/well in phenol red-free RPMI-1640 medium (Sigma Chemical Co.), containing 10% FCS and supplemented with 20% methyl cellulose stock solution. A total of 150 μl of this cell suspension was transferred to each well of a round bottom non-tissue culture treated 96 well-plate (Greiner Bio-one, Kremsmünster, Austria) to allow spheroid formation within 72 h.
A modified APH assay, which is based on quantification of cytosolic acid phosphatase activity, was used for determining cell viability in spheroids. Briefly, the pre-seeded spheroids were treated with fresh medium containing the compound to be studied at the appropriate concentration (range 5–150 μM). Triplicate cultures were established for each treatment. After 72 h, each well was treated with 100 μL of the assay buffer (0.1 M sodium acetate, 0.1% Triton-X-100, supplemented with ImmunoPure p-nitrophenyl phosphate; Sigma Chemical Co.) and, following 3 h of incubation, 10 μL of 1 M NaOH solution were added. The inhibition of the cell growth induced by the tested complexes was detected by measuring the absorbance of each well at 405 nm, using a Bio-Rad 680 microplate reader. Mean absorbance for each drug dose was expressed as a percentage of the control untreated well absorbance (T/C) and plotted vs drug concentration. IC50 values, the drug concentrations that reduce the mean absorbance at 405 nm 50% of those in the untreated control wells, were calculated by four-parameter logistic (4-PL) model. Evaluation was based on means from at least four independent experiments.

As a reminder, the IC50 is the concentration that inhibits the measured activity by half.

As to `F[P-](F)(F)(F)(F)F.OC[P+](CO)(CO)[Cu-3]([P+](CO)(CO)CO)([P+](CO)(CO)CO)[P+](CO)(CO)CO` [HydroCuP, [Cu(thp)4][PF6]], in data set [1], the “Copper content in brain with respect to control animals” value was “no enhance in copper content was detectable in brain”. In data set [1] (normalized to control mice tissues), the “Copper concentration in tumor mass, times higher than in spleen” value is listed as “at least 1.4”. For the same compound, in data set [2], the “Inhibition of tumor growth (decrease in final tumor volume)” value is “about 65%”. For the same compound, the “NAG activity, times lower than CDDP” value in data set [3] (urine 24, 72, 120 h) was “up to 12”. The “24 h excretion of uTP, times lower than CDDP” value in data set [3] (urine 24 h) is given as “roughly 12”. Moreover, the “uTP excreted, times lower than CDDP” value in data set [3] (urine 120 h) is recorded as 11. Also, the “IC50 fold lower than CDDP” value in data set [4] is given as “about 2.5”. Moreover, the IC50 in data set [4] (APH test, read-out: IC50 (μM) ± SD HCT-15) came out at 27 ± 4.25 µM.
